17 compounds from patent EP1941863A2, “External preparation composition” (Lion Corporation, priority 2002, dated 2004) can be followed below.

Series [1] has as its system guinea pig skin. Put plainly: continuous irritative test of guinea pig skin (Draize method). Also on record: key: sum of erythema (0-4) + edema (0-4) scores; max 8. The format is in vivo, guinea pig (Hartley series). The procedure: Each left and right two spots (4 spots/head) of applying parts having a frame of 2 cm x 2 cm were provided on the back of a shaved guinea pig (Hartley series, 7 weeks of age, female, N = 10), and each 50 µL of an ethanol/propylene glycol (7 : 3) solution containing 0.5 % of the respective acyl glucosamine derivatives shown in the following Table 1 was applied once a day on the respective frames.
A skin irritative score after application for 3 days straight was evaluated according to the following evaluation criteria (Draize method). The above irritative score was shown by the total points (full marks: 8 points) of erythema and edema.
• Erythema: • Evaluation point • 0: no erythema • 1: very weak erythema • 2: clear erythema • 3: middle to strong erythema • 4: very strong erythema to crust
• Evaluation point • 0: no edema • 1: very slight edema formation • 2: slight edema formation • 3: middle edema formation • 4: strong edema formation

A short description of series [2]: solubility in the ethanol/propylene glycol (7 : 3) solvent (Japanese Pharmacopoeia criteria). As to conditions: organic solvent or mixture, 20°C, within 30 minutes, amount of solvent for 1 g or 1 ml of solute. The format is physicochemical.
Series [3] deals with skin roughness in the inside of a forearm formed with 10 % SDS solution. Put plainly: skin roughness-improving test (SDS-induced roughness, stratum corneum conductance). As to conditions: hydrophilic ointment with 0.05 %, twice a day, 3 days later; conductance relative to ointment with no tested substance = 100. The format is in vivo, human being. On the procedure: The skin roughness-improving degree observed 3 days later after application was evaluated using a change in a stratum corneum water content as an index. The stratum corneum water content is measured in terms of a conductance (µS). […] Skin roughness-improving rate (%) = [(conductance observed when applying the ointment blended with the tested substance)/(conductance observed when applying the ointment blended with no tested substance)] × 100 [formula]

Series [4] deals with pigmentation on the backs of color guinea pigs irradiated with UV rays. Put plainly: whitening evaluation on UV-induced pigmentation. It counts as in vivo. The note with it: 30 µL of 0.05 % in ethanol/propylene glycol (7 : 3), once a day, five times a week, 4 weeks; visual change in pigmentation. An excerpt: Back body hair of color guinea pigs were shaved by means of a hair clipper and a shaver, and they were irradiated with UV rays once a day, 4 times a week and 8 times in total, whereby 4 parts of pigmentation having an area of about 2.25 cm^2 were formed on the backs of the respective guinea pigs.

The test system of series [5] is wrinkles of the back skin of hairless mice irradiated with UVB. Briefly: wrinkle-improving test in UVB-irradiated hairless mice. The format is in vivo, hairless mice (hos: HR-1). As to conditions: 100 µL of 0.05 % in ethanol/propylene glycol (7 : 3), once a day, five times a week, 8 weeks, after 10 weeks UVB 50 mJ/cm^2; visual score relative to control group. On the procedure:
Evaluation point 1: all fine striations along the spine are not observed; a few shallow and coarse wrinkles run perpendicularly to the head-to-tail direction; and the striations appear or disappear with the motion of the mouse. […] The respective bodies were evaluated by an evaluation point of a 0.5 unit to calculate an average point for the respective groups, and the wrinkle-improving rate was calculated for the respective groups according to the following equation (II). Wrinkle-improving rate (%) = [(average value of the control group-average value of a glucosamine derivative-applied group)/(average value of the control group)] × 100 [formula]

The test system of series [6] is texture of the back skin of hairless mice irradiated with UVB. Put plainly: coarse texture-improving test in UVB-irradiated hairless mice (skin replica). The format is in vivo, hairless mice (hos: HR-1). As to conditions: 100 µL of 0.05 % in ethanol/propylene glycol (7 : 3), five times a week, 4 weeks, after 6 weeks UVB 40 mJ/cm^2; texture intersection points relative to start of test; control 24. An excerpt: The enlarged photographs of the respective replicas were taken through a macro lens (magnification: four times), and the photographs were used to evaluate "coarsening of the texture". The coarseness of the texture was defined by a "number of texture intersection point", wherein a point in which three or more sulci cutis are joined is counted as one intersection point, and the number of the texture intersection points present in a square of 1 cm x 1 cm was counted on the replica photograph. An average point for the respective groups was calculated, and the texture-improving rate was calculated according to the following equation (III). Table 4. Texture-improving rate (%) = [(number of texture intersection point after irradiating with UV or after application)/(number of texture intersection point at the time of starting the test)] × 100 [formula]

The test system of series [7] is acnes of acne patients. Briefly: acne-improvement evaluation with an essence for acne. The format is in vivo. The note with it: essence with 0.05 %, a month later; for Evaluation ×: number of subjects rated × : worsened; for Evaluation Δ: number of subjects rated Δ : no change; for Evaluation ⊚: number of subjects rated ⊚ : notably improved, several times a day; for Evaluation ○: number of subjects rated ○ : improved; for Acne treating effect: subjects rated ○ or ⊚. On the procedure:
Prepared was an essence for acne shown in the following composition example in which 0.05 % of various acyl glucosamine derivatives shown in the following Table 6 was blended. An essence which was not blended with an acyl glucosamine derivative was prepared as a control.

[8] abbreviates: Table 2, by stereoisomer ratio, 0.5 % in ethanol/propylene glycol (7 : 3) once a day, 3 days straight, full marks 8.
The mark [9] stands for this setting: Table 1, 50 µL of 0.5 % in ethanol/propylene glycol (7 : 3) once a day, after 3 days straight, total points of erythema and edema, full marks 8, N = 10.

≈ marks a conversion by molar mass, not a printed value.

As for “1,3,4,6-tetra-O-acetyl-N-retinoyl-D-glucosamine”, the Draize score in series [1] (setting [8]) is reported as 0.0.
What is called solubility is how much of the substance goes into solution per volume. Consider `CC(=O)OC[C@H]1OC(OC(C)=O)[C@H](NC(=O)/C=C(C)/C=C/C=C(C)/C=C/C2=C(C)CCCC2(C)C)[C@@H](OC(C)=O)[C@@H]1OC(C)=O` (single isomer, unassigned) [1,3,4,6-tetra-O-acetyl-N-retinoyl-D-glucosamine], for which the Draize score in series [1] (setting [8]) was 0.0. Besides, in series [2], the solubility at 0.5 h was in the range of 1000 to 10000 µg/mL (≈ 1.59 to 15.9 mM).
Turning to `CC(=O)OC[C@H]1OC(OC(C)=O)[C@H](NC(=O)/C=C(C)/C=C/C=C(C)/C=C/C2=C(C)CCCC2(C)C)[C@@H](OC(C)=O)[C@@H]1OC(C)=O` (stereo partly drawn) [1,3,4,6-tetra-O-acetyl-N-retinoyl-D-glucosamine], the Draize score in series [1] (setting [9]) amounted to 0.0.
For `CCCCCCCCCCCCOC(=O)N[C@H]1C(O)O[C@H](CO)[C@@H](O)[C@@H]1O` (stereo partly drawn) [N-dodecyloxycarbonyl-D-glucosamine], in series [3], the Skin roughness-improving rate is 183%. The Whitening-improving effect entry in series [4] is “+++”.
On to `CC(C)CCCCCCCCCCCCCCC(=O)N[C@H]1C(O)O[C@H](CO)[C@@H](O)[C@@H]1O` (stereo partly drawn) [N-isostearoyl-D-glucosamine], for which the Draize score in series [1] (setting [9]) is given as 0.1. The compound also came in with a Wrinkle-improving rate in series [5] of 80%. This compound also displayed a Texture-improving rate in series [6] of 72%. The compound also displayed a Skin roughness-improving rate in series [3] of 136%. Besides, in series [7], the “Evaluation ×” value came to 0, the “Evaluation Δ” value was found to be 2, the “Evaluation ⊚” value was 0 and the “Evaluation ○” value was 3. For the same compound, the Acne treating effect in series [7] worked out at 60 percentage. For the same compound, in series [4], the Whitening-improving effect entry is on record as “+”.
As to `CCCCCCCCCCCC(=O)N[C@H]1C(O)O[C@H](CO)[C@@H](O)[C@@H]1O` (stereo partly drawn) [N-lauroyl-D-glucosamine], in series [1] (setting [9]), the Draize score stood at 0.1. For the same compound, the Wrinkle-improving rate in series [5] is recorded as 78%. Also, the Texture-improving rate in series [6] stood at 87%. The compound also had a Skin roughness-improving rate in series [3] of 114%. Further, in series [7], the “Evaluation ×” value is on record as 1, the “Evaluation Δ” value was determined as 1, the “Evaluation ⊚” value was 0 and the “Evaluation ○” value is 1. In series [7], the Acne treating effect turned out to be 33 percentage. Moreover, in series [4], the Whitening-improving effect result was “+”.
With `CCCCC/C=C\C/C=C\CCCCCCCC(=O)N[C@H]1C(O)O[C@H](CO)[C@@H](O)[C@@H]1O` (stereo partly drawn) [N-linoleoyl-D-glucosamine], in series [1] (setting [9]), the Draize score is listed as 0.3. This compound also had a Wrinkle-improving rate in series [5] of 62%. Also, in series [6], the Texture-improving rate is 58%. In series [3], this compound came in with a Skin roughness-improving rate of 115%. For the same compound, in series [7], the “Evaluation ×” value was 1, the “Evaluation Δ” value is recorded as 3, the “Evaluation ⊚” value worked out at 0 and the “Evaluation ○” value was determined as 1. In series [7], the Acne treating effect is 20 percentage. In addition, the Whitening-improving effect entry in series [4] was “++”.
Consider `CCCCCCCC/C=C\CCCCCCCC(=O)N[C@H]1C(O)O[C@H](CO)[C@@H](O)[C@@H]1O` (stereo partly drawn) [N-oleoyl-D-glucosamine], for which the Draize score in series [1] (setting [9]) came to 0.2. In series [5], the Wrinkle-improving rate was determined as 65%. The Texture-improving rate in series [6] is given as 59%. This compound displayed a Skin roughness-improving rate in series [3] of 114%. Besides, in series [7], the “Evaluation ×” value is given as 0, the “Evaluation Δ” value was found to be 2, the “Evaluation ⊚” value amounted to 0 and the “Evaluation ○” value stood at 3. In series [7], the Acne treating effect is 60 percentage. Besides, the Whitening-improving effect result in series [4] is recorded as “+++”.
For the compound `CC1=C(/C=C/C(C)=C/C=C/C(C)=C/C(=O)N[C@H]2C(O)O[C@H](CO)[C@@H](O)[C@@H]2O)C(C)(C)CCC1` [N-retinoyl-D-glucosamine (cis isomer/trans isomer = 0/100), N-retinoyl-D-glucosamine], the Draize score in series [1] (setting [8]) is 0.0. Besides, the solubility at 0.5 h in series [2] is 1000 to 10000 µg/mL (≈ 2.17 to 21.7 mM).
Take `CC1=C(/C=C/C(C)=C/C=C/C(C)=C/C(=O)O)C(C)(C)CCC1` [Retinoic acid, reference compound]: the Draize score in series [1] (setting [9]) is reported as 8.0.
Take “N-POE(2)hexadecyletheroxycarbonyl-D-glucosamine”: in series [1] (guinea pig, in vivo), the Draize score is given as 0.1. The Wrinkle-improving rate in series [5] is listed as 72%. Also, the Texture-improving rate in series [6] is given as 89%. The compound also had a Skin roughness-improving rate in series [3] of 139%. Moreover, in series [7], the “Evaluation ×” value is listed as 0, the “Evaluation Δ” value is on record as 2, the “Evaluation ⊚” value turned out to be 0 and the “Evaluation ○” value was 3. In addition, the Acne treating effect in series [7] was 60 percentage. In series [4], the Whitening-improving effect entry is recorded as “++”.
Take “N-POE(5)octadecyletheroxycarbonyl-D-glucosamine”: in series [1] (guinea pig, in vivo), the Draize score stood at 0.2. The Wrinkle-improving rate in series [5] is 73%. The compound further gave a Texture-improving rate in series [6] of 92%. The Skin roughness-improving rate in series [3] turned out to be 128%. In addition, in series [7], the “Evaluation ×” value is recorded as 0, the “Evaluation Δ” value is 3, the “Evaluation ⊚” value is 0 and the “Evaluation ○” value is given as 2. This compound also displayed an Acne treating effect in series [7] of 40 percentage. For the same compound, the Whitening-improving effect result in series [4] was “++”.
Turning to “N-POE(10)docosyletheroxycarbonyl-D-glucosamine”, in series [1] (guinea pig, in vivo), the Draize score came to 0.1. Besides, in series [5], the Wrinkle-improving rate is recorded as 82%. For the same compound, the Texture-improving rate in series [6] was determined as 88%. In addition, the Skin roughness-improving rate in series [3] is given as 138%. For the same compound, in series [7], the “Evaluation ×” value was 0, the “Evaluation Δ” value is on record as 3, the “Evaluation ⊚” value came out at 0 and the “Evaluation ○” value was found to be 2. In addition, in series [7], the Acne treating effect came to 40 percentage. Moreover, in series [4], the Whitening-improving effect entry is on record as “++”.
Regarding N-retinoyl-D-glucosamine, the Wrinkle-improving rate in series [5] was determined as 89%. Further, the Texture-improving rate in series [6] was 75%. Also, in series [3], the Skin roughness-improving rate turned out to be 127%. Besides, in series [7], the “Evaluation ×” value was 0, the “Evaluation Δ” value is listed as 0, the “Evaluation ⊚” value was determined as 4 and the “Evaluation ○” value was found to be 2. The compound also returned an Acne treating effect in series [7] of 100 percentage. For the same compound, in series [4], the Whitening-improving effect entry is given as “+++”.
Take “N-retinoyl-D-glucosamine [N-retinoyl-D-glucosamine (9-cis isomer/13-cis isomer/trans i]”: the Draize score in series [1] (setting [9]) and in series [1] (setting [8]) was 0.1 throughout.
Regarding “N-retinoyl-D-glucosamine [N-retinoyl-D-glucosamine (9-cis isomer/trans isomer = 0.5/99.5)]”, the Draize score in series [1] (setting [8]) was 0.1.
Turning to “N-retinoyl-D-glucosamine [N-retinoyl-D-glucosamine (13-cis isomer/trans isomer = 0.5/99.5)]”, the Draize score in series [1] (setting [8]) is 0.0.
